Results from patent publication US20050250837A1, “Use of C-Raf inhibitors for the treatment of neurodegenerative diseases” (priority 2002, published 2005).

Legend:
[1] = tested on: cerebellar granule neurons; assay: LK-induced apoptosis of cultured cerebellar granule neurons (MTT viability); type: cell-based, rat
Description: Cultured cerebellar granule neurons undergo apoptosis when switched from HK to medium containing LK (D'Mello et al., 1993). […] Neuronal cultures were switched to medium containing LK, or LK medium containing different doses of GW5074. Cell viability was quantified 24 hours later. Control cultures received HK medium. […] Protection against LK-induced apoptosis is maximal at 1 uM.
Granule neuron cultures were obtained from dissociated cerebella of 7-8 day old rats as described previously (D'Mello et al., 1993). Cells were plated in Basal Eagle's Medium with Earles salts (BME) supplemented with 10% fetal bovine serum (FBS), 25 mM KCl, 2 mM glutamine (Gibco-BRL), and 100 ug/ml gentamycin on dishes coated with poly-L-lys ine in 24-well dishes at a density 1.0×10^6 cells/well, 1.2×10^7 cells/60 mm dish, or 3.0×10^7 cells/100 mm dish. Cytosine arabinofuranoside (10 uM) was added to the culture medium 18-22 hours after plating to prevent replication of non-neuronal cells. Cultures were maintained for 6-7 days prior to experimental treatments. For this, the cells were rinsed once and then maintained in low K^+ medium (serum-free BME medium, 5 mM KCl) or high K^+ medium (serum-free BME medium, supplemented with 20 mM KCl). When used to treat cultures, GW5074 was added at the time when cells were switched to LK medium. Treatment of cultures with pharmacological inhibitors was initiated 15 min prior to rinsing and was maintained through the subsequent incubation in LK or HK medium unless specified otherwise. For MPP+ and methylmercury treatments, 7-8 day old cultures were switched to HK medium containing 200 uM MPP+ or 0.5 uM methylmercury. Viability was assayed 24 hours later.
Neuronal survival was quantified by the MTT assay as previously described (Koulich et al., 2001). Briefly, the tetrazolium salt MTT [3-(4,5-dimethyl-2-thiazolyl)-2,5-diphenyl-2H tetrazolium bromide] was added to the cultures at a final concentration of 1 mg/ml, and incubation of the culture was continued in the CO2 incubator for a further 30 min at 37° C. The assay was stopped by adding lysis buffer [20% SDS in 50% N,N-dimethyl formamide, pH 4.7]. The absorbance was measured specrophotometrically at 570 nm after an overnight incubation at room temperature. The absorbance of a well without cells was used as background and subtracted. Results obtained using the MTT assays were confirmed using the fluorescein-diacetate method for quantification of cell viability, as previously described (D'Mello et al., 1993). Data are presented as mean+/−standard deviation. Statistical analysis was performed using ANOVA and Student-Neuman-Keuls' test.

[2] = biological target: c-fms (Homo sapiens, UniProt P07333); details: Lackey et al., 2000; cited from earlier work
[3] = tested on: GSK3β; assay: GSK3β phosphorylation in neuronal cultures, Western blot; type: cell-based, rat; details: LK + 1 uM GW5074
[4] = tested on: NF-κB; assay: NF-κB DNA-binding activity, gel mobility shift assay; type: cell-based, rat; details: LK + 1 uM GW5074, 6 hours
Description: Another molecule known to be important for neuronal survival is NF-κB. Although the precise mechanism has not been elucidated, the Raf is known to activate NF-κB in normeuronal cells via a MEK-ERK-independent mechanism (Foo and Nolan, 1999; Pearson et al., 2000). […] Viability was quantified 24 hours later and expressed as percentage of viability in HK.
One potential mediator of MEK-ERK-independent B-Raf signaling is NF-κB.
Nuclei from neuronal cultures were resuspended in buffer containing 20 mM HEPES pH 7.6, 50 mM KCl, 300 mM NaCl, 0.1 mM EDTA, 1 mM DTT, 0.1 mM PMSF, 10% glycerol, 1× protease inhibitor cocktail and extracted on ice for 30 min, followed by micro-centrifugation at 14,000 rpm for 10 min. The supernatants were collected as nuclear extracts. Concentrations of these nuclear extracts were determined by the Bradford method using reagents from Bio-Rad. Ten μg of each nuclear extract sample was incubated with 0.1 pmol of ^32P-labeled double-stranded KB binding oligonucleotide (5′-[…]-3′) identified as SEQ ID NO:1, or SP1 binding oligonucleotide (5′-[…]-3′) identified as SEQ ID NO:2, in buffer containing 1 μg of poly (d1-dC), 1 μg of BSA, 10 mM HEPES pH7.6, 0.5 mM DTT, 0.1 mM EDTA, 60 mM KCl, 0.2 mM PMSF, 5 mM MgCl2, and 12% glycerol at room temperature for 30 min. Samples were analyzed by 5% native polyacrylamide gel electrophoresis (PAGE) followed by autoradiography.

[5] = tested on: cerebellar granule neurons; assay: Apoptosis of neurons transfected with dominant-negative B-Raf or LacZ in LK plus GW5074; type: cell-based, rat; details: LK + 1 uM GW5074, 24 hours
Description: A dominant-negative […] expression vector, pSRa GST B-Raf S728A (full length human B-Raf with Serine to Alanine mutation at position 728) was gifted to us by Dr. Angus M. MacNicol, University of Arkansas for Medical Sciences, Little Rock, Ark. Neuronal cultures were transfected with CMV-LacZ or the dominant-negative B-Raf construct using the calcium phosphate method 5 days after plating of the cultures. […] The proportion of transfected neurons that were apoptotic was quantified 24 hours later.

[6] = biological target: c-src (Homo sapiens, UniProt P12931); details: Lackey et al., 2000; cited from earlier work
[7] = tested on: B-Raf; assay: Activity of B-Raf immunoprecipitated from neuronal lysates, MEK substrate; type: cell-based, rat; details: LK + 1 uM GW5074, 1 hour
Description: The reaction mixture was subjected to Western analysis using a phospho-MEK antibody as probe.
Activities of endogenous C-Raf and B-Raf activity was assayed by measuring the ability of kinase immunoprecipitated from neuronal lysates to phosphorylate a kinase-dead recombinant GST-MEK1 substrate. Following immunoprecipitation and multiple washes with lysis buffer, lysis buffer supplemented with 350 mM NaCl, and kinase buffer (25 mM HEPES pH 7.4 and 10 mM MgCl2), in vitro kinase assays are performed on the immune complexes using purified recombinant GST-MEK1 K97M protein as a substrate in kinase buffer supplemented with 85 μM ATP for 35 minutes at 30° C. Reactions are stopped by the addition of 3×SDS sample buffer and boiled for five minutes. Proteins are resolved by SDS-PAGE and subjected to Western blotting. The level of phosphorylated MEK is detected by a phospho-MEK antibody.

Sequence of c-src (P12931 whole entry, species assumed): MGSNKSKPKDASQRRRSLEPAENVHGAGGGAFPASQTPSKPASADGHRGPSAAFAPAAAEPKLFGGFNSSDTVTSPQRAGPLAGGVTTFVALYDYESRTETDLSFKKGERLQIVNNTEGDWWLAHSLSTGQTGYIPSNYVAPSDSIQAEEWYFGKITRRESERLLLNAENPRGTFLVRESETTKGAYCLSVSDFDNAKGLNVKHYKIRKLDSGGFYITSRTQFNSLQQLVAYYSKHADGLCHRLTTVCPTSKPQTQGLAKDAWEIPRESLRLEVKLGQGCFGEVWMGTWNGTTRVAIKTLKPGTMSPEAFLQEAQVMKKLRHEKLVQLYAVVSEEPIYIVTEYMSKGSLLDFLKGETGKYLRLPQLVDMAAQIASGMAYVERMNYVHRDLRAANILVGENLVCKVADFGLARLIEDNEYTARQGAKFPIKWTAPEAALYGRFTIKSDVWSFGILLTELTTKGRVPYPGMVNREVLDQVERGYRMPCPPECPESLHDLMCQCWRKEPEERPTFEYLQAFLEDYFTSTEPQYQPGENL
Sequence of c-fms (P07333 20-972): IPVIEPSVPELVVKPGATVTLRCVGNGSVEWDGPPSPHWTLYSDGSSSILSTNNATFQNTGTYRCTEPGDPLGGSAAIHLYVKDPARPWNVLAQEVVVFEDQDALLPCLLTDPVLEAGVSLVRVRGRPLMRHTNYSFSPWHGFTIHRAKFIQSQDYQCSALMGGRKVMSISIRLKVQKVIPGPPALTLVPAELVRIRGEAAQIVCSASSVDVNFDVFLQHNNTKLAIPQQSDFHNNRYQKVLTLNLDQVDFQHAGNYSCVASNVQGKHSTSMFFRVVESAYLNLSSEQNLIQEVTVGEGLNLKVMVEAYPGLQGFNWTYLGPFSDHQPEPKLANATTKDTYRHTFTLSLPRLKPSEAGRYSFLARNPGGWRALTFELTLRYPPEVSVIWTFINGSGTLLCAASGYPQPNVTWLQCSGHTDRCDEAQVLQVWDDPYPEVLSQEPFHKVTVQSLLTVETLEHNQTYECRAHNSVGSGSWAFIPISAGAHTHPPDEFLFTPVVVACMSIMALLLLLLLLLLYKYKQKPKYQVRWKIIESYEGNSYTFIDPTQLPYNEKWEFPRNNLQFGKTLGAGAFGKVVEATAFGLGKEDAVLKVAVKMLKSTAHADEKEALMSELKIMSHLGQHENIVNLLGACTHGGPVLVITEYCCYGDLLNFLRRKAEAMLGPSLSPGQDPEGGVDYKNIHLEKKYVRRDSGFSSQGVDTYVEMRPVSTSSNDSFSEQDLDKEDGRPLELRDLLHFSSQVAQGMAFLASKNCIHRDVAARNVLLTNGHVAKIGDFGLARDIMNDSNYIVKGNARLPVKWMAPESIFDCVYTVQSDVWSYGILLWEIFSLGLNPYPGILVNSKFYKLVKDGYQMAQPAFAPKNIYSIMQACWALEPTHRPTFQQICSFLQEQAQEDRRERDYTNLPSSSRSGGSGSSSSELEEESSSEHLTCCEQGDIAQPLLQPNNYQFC

For `O=C1Nc2ccc(I)cc2C1=Cc1cc(Br)c(O)c(Br)c1` [GW5074, 5-Iodo-3-[(3,5-dibromo-4-hydroxyphenyl)methylene]-2-indolinone], the “neuroprotection against LK-induced apoptosis” value ([1]; 5 uM and 10 uM) was “Neuroprotection by GW5074 is also observed”, the “protection against LK-induced apoptosis” value ([1]; LK + 1 uM GW5074, 24 hours) was “prevents LK-induced apoptosis” and the “concentration of maximal protection against LK-induced apoptosis” value ([1]; viability 24 hours after switch to LK) was 1 µM. The “effect on activity of c-fms” value [2] was “no effect”, the “activation of GSK3β after switch to LK” value [3] was “prevents the activation of GSK3” and the “NF-κB binding activity in LK” value [4] was “downregulation of NF-κB binding activity is prevented”. The death of neurons ([5]; LacZ control) was “less than 10%”, the “death of infected neurons” value ([5]; dominant-negative B-Raf, data not shown) was 80% and the “effect on activity of c-src” value [6] was “no effect”. For the same molecule, the “B-Raf activity in neurons” value [7] was “elevated further”.
